Structures are written as SMILES. Converted amounts (≈) assume the structure as drawn.

Data on five compounds can be found in ChEMBL document CHEMBL4613212, “Insights of synthetic analogues of anti-leprosy agents” (Bioorg Med Chem, 2019).

The test system of experiment [1] is Enterococcus faecalis. Description: Antimicrobial activity against Enterococcus faecalis ATCC 29212 by broth microdilution assay. The experiment is classed as functional.
Experiment [2] concerns Staphylococcus aureus. The experiment is described as follows: Antimicrobial activity against Staphylococcus aureus ATCC 25923 by broth microdilution assay. Format: functional. A general note: Broth dilution looks for growth in wells or tubes with falling amounts of substance.
For experiment [3], the system named is Enterococcus faecalis. The experiment is described as follows: Antimicrobial activity against Enterococcus faecalis ATCC 51922 by broth microdilution assay. Format: functional.
Experiment [4] concerns Listeria monocytogenes. The experiment is described as follows: Antimicrobial activity against Listeria monocytogenes ATCC 1911 by broth microdilution assay. Format: functional.
In experiment [5] the test system is Klebsiella pneumoniae. The experiment is described as follows: Antimicrobial activity against Klebsiella pneumoniae 700603 by broth microdilution assay. The experiment is classed as functional.
The subject of experiment [6] is Pseudomonas aeruginosa. Description: Antimicrobial activity against Pseudomonas aeruginosa ATCC 27853 by broth microdilution assay. Format: functional.
In experiment [7] the test system is Escherichia coli. The experiment is described as follows: Antimicrobial activity against Escherichia coli ATCC 35218 by broth microdilution assay. Format: functional.
Experiment [8] concerns Escherichia coli. Description: Antimicrobial activity against Escherichia coli ATCC 25922 by broth microdilution assay. Format: functional.
The subject of experiment [9] is Mycobacterium tuberculosis. The experiment is described as follows: Antitubercular activity against Mycobacterium tuberculosis H37Rv ATCC 27294 incubated for 7 days by microplate alamar blue assay. To be noted: H37Rv ATCC 27294, 168 h. Format: functional.
Experiment [10] deals with Nakaseomyces glabratus. Description: Antifungal activity against Candida glabrata. The experiment is classed as functional.
Experiment [11] deals with Mycobacterium leprae. The experiment is described as follows: Anti-leprotic activity against Mycobacterium leprae infected in BALB/c weanling mouse assessed as bacteria killing at 100 mg/kg, ip administrated for 60 days and measured after 1 year by most probable number technique analysis relative to control. Format: functional.
For experiment [12], the system named is Mycobacterium leprae. Description: Anti-leprotic activity against Mycobacterium leprae infected in BALB/c weanling mouse assessed as bacteria killing at 100 mg/kg, ip administrated for 60 days and measured after 1 year by Spearman-Karber technique analysis relative to control. Format: functional.
The test system of experiment [13] is Mycobacterium tuberculosis. Description: Antitubercular activity against Mycobacterium tuberculosis H37Rv ATCC 27294 assessed as growth inhibition at 6.25 ug/ml by microplate alamar blue assay relative to control. The experiment is classed as functional. For orientation: The colour change of resazurin is a common sign of viable cells or microbes.
The test system of experiment [14] is Mycobacterium tuberculosis. The experiment is described as follows: Antitubercular activity against Mycobacterium tuberculosis H37Rv ATCC 27294 assessed as inhibition of [3H]-thymidine incorporation. Format: functional, organism-based. (In general: Incorporation of labelled thymidine or its analogues reports DNA synthesis.)
The test system of experiment [15] is Mycobacterium tuberculosis. Description: Antitubercular activity against Mycobacterium tuberculosis H37Rv ATCC 27294 assessed as inhibition of [3H]-thymidine incorporation relative to control. Format: functional.
Experiment [16] relates to Mycobacterium leprae. The experiment is described as follows: Anti-leprotic activity against rifampicin-susceptible Mycobacterium leprae subcultures at 4 weeks assessed as ATP level per 10^7 cells at 0.2 mg/L measured by bioluminescence assay (reference value: 425 +/- 64 pg). Format: functional.
The test system of experiment [17] is Mycobacterium leprae. Description: Anti-leprotic activity against rifampicin-susceptible Mycobacterium leprae subcultures at 4 weeks assessed as ATP level per 10^7 cells at 0.025 mg/L measured by bioluminescence assay (reference value: 425 +/- 64 pg). The experiment is classed as functional.
Experiment [18] has as its system Mycobacterium leprae. The experiment is described as follows: Anti-leprotic activity against rifampicin-susceptible Mycobacterium leprae primary cultures at 4 weeks assessed as ATP level per 10^7 cells at 0.05 mg/L measured by bioluminescence assay (reference value: 332 +/- 46 pg). Format: functional.
Experiment [19] has as its system Mycobacterium leprae. Description: Anti-leprotic activity against rifampicin-susceptible Mycobacterium leprae primary cultures at 4 weeks assessed as ATP level per 10^7 cells at 0.025 mg/L measured by bioluminescence assay (reference value: 332 +/- 46 pg). Format: functional.
For experiment [20], the system named is Mycobacterium leprae. Description: Anti-leprotic activity against rifampicin-susceptible Mycobacterium leprae subcultures at 4 weeks assessed as ATP level per 10^7 cells at 0.1 mg/L measured by bioluminescence assay (reference value: 425 +/- 64 pg). The experiment is classed as functional.
Experiment [21] relates to Mycobacterium leprae. Description: Anti-leprotic activity against rifampicin-susceptible Mycobacterium leprae subcultures at 4 weeks assessed as ATP level per 10^7 cells at 0.05 mg/L measured by bioluminescence assay (reference value: 425 +/- 64 pg). The experiment is classed as functional.
Experiment [22] has as its system Mycobacterium leprae. The experiment is described as follows: Anti-leprotic activity against rifampicin-susceptible Mycobacterium leprae primary cultures at 4 weeks assessed as ATP level per 10^7 cells at 0.1 mg/L measured by bioluminescence assay (reference value: 332 +/- 46 pg). The experiment is classed as functional.
For experiment [23], the system named is Mycobacterium leprae. Description: Anti-leprotic activity against rifampicin-susceptible Mycobacterium leprae primary cultures at 4 weeks assessed as ATP level per 10^7 cells at 0.2 mg/L measured by bioluminescence assay (reference value: 332 +/- 46 pg). The experiment is classed as functional.
Experiment [24] deals with Mycobacterium leprae. Description: Anti-leprotic activity against rifampicin-susceptible Mycobacterium leprae primary cultures at 4 weeks assessed as [3H]thymidine uptake per 5 times 10^7 cells at 0.025 mg/L incubated for 24 hrs (reference value: 1.05 +/- 0.16 pmol). The experiment is classed as functional.
Experiment [25] deals with Mycobacterium leprae. The experiment is described as follows: Anti-leprotic activity against rifampicin-susceptible Mycobacterium leprae primary cultures at 4 weeks assessed as [3H]thymidine uptake per 5 times 10^7 cells at 0.05 mg/L incubated for 24 hrs (reference value: 1.05 +/- 0.16 pmol). The experiment is classed as functional.
In experiment [26] the test system is Mycobacterium leprae. The experiment is described as follows: Anti-leprotic activity against rifampicin-susceptible Mycobacterium leprae primary cultures at 4 weeks assessed as [3H]thymidine uptake per 5 times 10^7 cells at 0.1 mg/L incubated for 24 hrs (reference value: 1.05 +/- 0.16 pmol). The experiment is classed as functional.
Experiment [27] has as its system Mycobacterium leprae. The experiment is described as follows: Anti-leprotic activity against rifampicin-susceptible Mycobacterium leprae primary cultures at 4 weeks assessed as [3H]thymidine uptake per 5 times 10^7 cells at 0.2 mg/L incubated for 24 hrs (reference value: 1.05 +/- 0.16 pmol). The experiment is classed as functional.
Experiment [28] has as its system Mycobacterium leprae. Description: Anti-leprotic activity against rifampicin-susceptible Mycobacterium leprae subcultures at 4 weeks assessed as [3H]thymidine uptake per 5 times 10^7 cells at 0.025 mg/L incubated for 24 hrs (reference value: 1.41 +/- 0.20 pmol). Format: functional.
For experiment [29], the system named is Mycobacterium leprae. The experiment is described as follows: Anti-leprotic activity against rifampicin-susceptible Mycobacterium leprae subcultures at 4 weeks assessed as [3H]thymidine uptake per 5 times 10^7 cells at 0.05 mg/L incubated for 24 hrs (reference value: 1.41 +/- 0.20 pmol). Format: functional.
The subject of experiment [30] is Mycobacterium leprae. Description: Anti-leprotic activity against rifampicin-susceptible Mycobacterium leprae subcultures at 4 weeks assessed as [3H]thymidine uptake per 5 times 10^7 cells at 0.1 mg/L incubated for 24 hrs (reference value: 1.41 +/- 0.20 pmol). The experiment is classed as functional.
The subject of experiment [31] is Mycobacterium leprae. Description: Anti-leprotic activity against rifampicin-susceptible Mycobacterium leprae subcultures at 4 weeks assessed as [3H]thymidine uptake per 5 times 10^7 cells at 0.2 mg/L incubated for 24 hrs (reference value: 1.41 +/- 0.20 pmol). Format: functional.

Consider `Fc1ccc(/C=N/NC(=S)Nc2ccc(C(F)(F)F)cc2)cc1`, for which the MIC in [1] was determined as 200 µg/mL (≈ 586 µM); in experiment [2], 100 µg/mL (≈ 293 µM); in experiment [3], 1600 µg/mL (≈ 4690 µM); in experiment [4], 1600 µg/mL (≈ 4690 µM); in [5], 800 µg/mL (≈ 2340 µM); in experiment [6], 1600 µg/mL (≈ 4690 µM). The MIC in experiment [7] was 1600 µg/mL (≈ 4690 µM); in [8], 400 µg/mL (≈ 1170 µM); in experiment [9], 400 µg/mL (≈ 1170 µM); in experiment [10] it was 200 µg/mL (≈ 586 µM).
Turning to `NCC[C@H](O)C(=O)N[C@@H]1C[C@H](N)[C@@H](O[C@H]2O[C@H](CN)[C@@H](O)[C@H](O)[C@H]2O)[C@H](O)[C@H]1O[C@H]1O[C@H](CO)[C@@H](O)[C@H](N)[C@H]1O` [AMIKACIN], the Activity in experiment [11] was found to be 97.3%; in experiment [12], 96%.
Turning to `OC[C@H]1O[C@@H](n2cnc3c(-c4ccccc4)ncnc32)[C@H](O)[C@@H]1O`, the inhibition at 6.25 µg/mL in experiment [13] was found to be 14%. Further, the IC50 in experiment [14] turned out to be 0.4 µg/mL (≈ 1.22 µM). In experiment [15], the “inhibition (INH)” value is 99%.
Consider `CCC(C)N1CCN(c2cc(O)c3nc4c5c6c7c(C)c(O)c5c(=O)c(c-4oc3c2)NC(=O)/C(C)=C\C=C\[C@H](C)[C@H](O)[C@@H](C)[C@@H](O)[C@@H](C)[C@H](OC(C)=O)[C@H](C)[C@@H](OC)/C=C/O[C@@](C)(O7)C6=O)CC1` (stereo in doubt; form 2), for which the Activity in experiment [16] stood at 0 pg; in experiment [17], 363 pg; in experiment [18], 233 pg; in [19], 298 pg; in [20] it was 0 pg; in experiment [21], 221 pg. Besides, the Activity in [22] is 0 pg; in experiment [23] it was 0 pg; in experiment [24] it was 0.298 pmol; in experiment [25], 0.77 pmol; in [26], 0 pmol; in [27] it was 0 pmol. Also, the Activity in [28] is given as 0 pmol; in experiment [29], 1.28 pmol; in experiment [30], 0.76 pmol; in [31], 0 pmol.
Turning to `OC[C@H]1O[C@@H](n2cnc3c(-c4ccco4)nc(Cl)nc32)[C@H](O)[C@@H]1O`, in [13], the inhibition at 6.25 µg/mL amounted to 7%. Also, in experiment [14], the IC50 was determined as 3.4 µg/mL (≈ 9.64 µM). In addition, the “inhibition (INH)” value in [15] turned out to be 100%.

One may read the MIC as the lowest concentration found to suppress growth. Read a low MIC as inhibition by little substance. The inhibition is the share of the control response that was lost under treatment. What is called IC50 is the midpoint of a concentration-inhibition curve.
